Laboratory results from patent US11957737B2, “Methods of treating microbial infection and inflammation” (Colorado Seminary, Owner and Operator of University of …, priority 2017, dated 2024).

Tests used:
E. coli (ATCC 25922) = assay: standard broth dilutions susceptibility test, read at 600 nm; format: cell-based
Experimental: The following methods were used to conduct the experiments described in Examples 1-3, below: The experiments were conducted using the standard broth dilutions susceptibility test (Jorgensen, J. H.; Turnidge, J. D., Susceptibility test methods: dilution and disk diffusion methods. In Manual of Clinical Microbiology, Eleventh Edition, American Society of Microbiology: 2015; pp 1253-73). Briefly, 1 μl of glycerol stock aliquot of E. coli (ATCC 25922) was inculcated into Tryptic Soya agar (TSA) (Sigma Aldrich 22091) plates and incubated at 37° C. for 24 hrs. Subsequently, 3-5 separate colonies were selected and transferred into 4 ml Tryptic Soya broth (TSB) (Sigma Aldrich 22092) and incubated at 37° C. for 24 hrs. After incubation, samples were diluted 4 ml into 50 ml TSB to make E. coli stock. 200 μl samples were then placed into wells of a 96-microwell plate. All samples were prepared in TSB, (Blank) using TSB, ERGO (OXIS International), LF (Sigma Aldrich) and NLF were diluted to 1 mg/ml. The nitration reaction was prepared following the method reported by Selzle et al (Determination of nitration degrees for the birch pollen allergen Bet v 1. Analytical and Bioanalytical Chemistry 2013, 405(27):8945-49). According to this procedure, 400 μl aliquots of 5.0 mg/ml (±5%) LF in aqueous solution were pipetted into glass vials. […] Using the plate reader (Tecan Infinite, M1000 PRO). […]

[1] = ferrous iron (Fe++) binding capacity of LF; settings: FIG. 3
Text: As noted above, LF binds ferrous iron (Fe++) and controls iron distribution throughout the body and its ability to bind to inflammatory and other cell membranes and impact the activities of these cells through its iron binding activities and other mechanisms. The inventors hypothesized that the antibacterial effect may be linked to the iron binding activity of LF and that this antibacterial effect may be disrupted by nitration.
However, sodium peroxinitrite caused changes that went far beyond the mere nitration of a few tyrosine residues to include destruction of tyrosine and tryptophan which at least in part were converted to unidentified reaction products. Nitration can occur as a consequence of the formation of reactive nitrogen species in the body and as a result of drug or chemical reactions, and/or environmental toxins in polluted air, water, or other routes of intake.

Compound: C[N+](C)(C)[C@@H](Cc1c[nH]c(=S)[nH]1)C(=O)[O-] [ERGO, 3-(2-Sulfanylidene-1,3-dihydroimidazol-4-yl)-2-(trimethylazaniumyl)propanoate]
- growth of E. coli (E. coli (ATCC 25922); LF 1 mg/ml or 2 mg/ml, ERGO 5 mM or 50 mM, compared to growth of E. coli without additions, FIGS. 1A and 1B): reduced the growth of E. coli
- dependence of retained anti-bacterial activity on ERGO concentration (E. coli (ATCC 25922); LF exposed to nitrating agents, various concentrations of ERGO, FIG. 2): related to the concentration of ERGO added
- effect of ERGO on the ferrous iron (Fe++) binding capacity of LF [1]: does not appear that the ability of ERGO to increase the anti-bacterial activity of LF results from binding of Fe++ on LF
